Laboratory results from publication PMC6543810, “Computational Identification of Novel Kir6 Channel Inhibitors” (Frontiers in Pharmacology, 2019).
Read-outs that look alike come from different tables or passages of the source.

Assays:
Kir6.2 C166S/SUR2A = target: T1, Kir6.2 C166S/SUR2A (Rattus norvegicus, UniProt P70673, C166S); test: Inside-out patch clamp, Cantú mutant C166S Kir6.2 with SUR2A; assay type: cell-based; details: C166S Kir6.2 (homolog of Kir6.1 C176S)/SUR2A, outward current
T1 construct: expressed in transfected cells; host or cells: HEK293T
T1 sequence (P70673 whole entry C166S): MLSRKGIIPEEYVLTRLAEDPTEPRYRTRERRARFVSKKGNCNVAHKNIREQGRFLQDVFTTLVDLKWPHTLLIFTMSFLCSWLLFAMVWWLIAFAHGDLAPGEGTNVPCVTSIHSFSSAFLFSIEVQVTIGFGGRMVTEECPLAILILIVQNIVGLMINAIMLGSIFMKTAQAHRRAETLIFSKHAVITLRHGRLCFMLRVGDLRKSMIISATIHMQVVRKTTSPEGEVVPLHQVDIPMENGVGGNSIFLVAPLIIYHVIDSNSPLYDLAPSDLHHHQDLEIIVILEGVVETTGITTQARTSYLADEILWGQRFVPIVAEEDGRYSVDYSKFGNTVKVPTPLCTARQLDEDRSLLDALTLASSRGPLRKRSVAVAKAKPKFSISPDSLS
T1 sequence (Q63563 whole entry partner): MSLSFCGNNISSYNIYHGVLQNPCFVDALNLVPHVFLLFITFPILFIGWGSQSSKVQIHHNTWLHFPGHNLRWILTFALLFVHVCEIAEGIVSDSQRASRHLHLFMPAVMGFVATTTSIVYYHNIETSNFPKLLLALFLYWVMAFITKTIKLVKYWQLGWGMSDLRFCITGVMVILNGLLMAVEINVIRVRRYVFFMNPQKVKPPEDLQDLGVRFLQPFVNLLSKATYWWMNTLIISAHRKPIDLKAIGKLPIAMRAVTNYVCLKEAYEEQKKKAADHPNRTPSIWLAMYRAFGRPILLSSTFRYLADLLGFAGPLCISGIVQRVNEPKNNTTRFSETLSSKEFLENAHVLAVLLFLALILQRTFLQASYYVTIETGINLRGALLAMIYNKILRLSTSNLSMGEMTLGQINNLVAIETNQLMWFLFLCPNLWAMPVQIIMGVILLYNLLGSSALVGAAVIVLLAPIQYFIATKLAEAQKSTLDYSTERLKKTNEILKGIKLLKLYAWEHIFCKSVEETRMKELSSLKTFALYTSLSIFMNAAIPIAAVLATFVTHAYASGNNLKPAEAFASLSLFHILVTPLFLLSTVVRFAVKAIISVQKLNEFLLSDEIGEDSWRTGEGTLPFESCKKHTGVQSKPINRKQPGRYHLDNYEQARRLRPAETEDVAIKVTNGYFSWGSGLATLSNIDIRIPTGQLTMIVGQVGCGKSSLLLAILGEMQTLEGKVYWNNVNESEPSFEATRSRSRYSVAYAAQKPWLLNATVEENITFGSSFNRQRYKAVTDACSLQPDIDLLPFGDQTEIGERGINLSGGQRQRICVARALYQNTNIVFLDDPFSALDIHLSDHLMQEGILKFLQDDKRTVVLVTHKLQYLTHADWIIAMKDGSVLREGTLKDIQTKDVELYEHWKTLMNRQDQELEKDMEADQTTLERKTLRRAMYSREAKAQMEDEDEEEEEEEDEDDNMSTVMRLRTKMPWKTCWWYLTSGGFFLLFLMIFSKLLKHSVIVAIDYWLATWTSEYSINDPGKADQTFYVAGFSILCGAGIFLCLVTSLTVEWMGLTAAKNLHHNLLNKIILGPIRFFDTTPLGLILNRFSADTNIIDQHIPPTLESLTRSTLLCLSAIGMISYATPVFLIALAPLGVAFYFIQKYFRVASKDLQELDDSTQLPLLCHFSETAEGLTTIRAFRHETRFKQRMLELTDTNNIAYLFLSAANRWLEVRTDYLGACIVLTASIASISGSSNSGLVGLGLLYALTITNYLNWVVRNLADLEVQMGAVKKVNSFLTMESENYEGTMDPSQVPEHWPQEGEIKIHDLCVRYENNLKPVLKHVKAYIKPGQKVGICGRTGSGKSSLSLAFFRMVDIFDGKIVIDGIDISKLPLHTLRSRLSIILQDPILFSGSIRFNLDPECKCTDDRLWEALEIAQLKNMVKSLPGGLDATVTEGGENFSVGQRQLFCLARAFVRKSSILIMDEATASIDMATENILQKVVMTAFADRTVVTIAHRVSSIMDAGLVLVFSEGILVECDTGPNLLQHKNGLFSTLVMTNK
Description: (§1) Inside-out patch clamp electrophysiology was performed as described previously ([Harakalova et al., 2012]). In short, HEK293T cells were cultured on 10 mm glass coverslips and transfected with 0.16 μg of rat pCMV6-Kir6.2, 0.16 μg of rat pCMV6-SUR2A and 0.08 μg of pEGFP1 expression constructs. Measurements were performed using an AxoPatch 200B amplifier controlled by pClamp 9 software (Molecular Devices) at 22°C using a ramp protocol ranging from −100 to +100 mV in 5 s from a holding potential of −40 mV. The sampling rate was 50 kHz, filter frequency was 2 kHz. Bath solution contained 131 mM KCl, 1 mM EGTA, 7.2 mM K2HPO4, 2.8 mM KH2PO4, 1 mM MgCl2, and pH 7.20/KOH. The pipette solution contained 145 mM KCl, 1 mM CaCl2, 1 mM MgCl2, 5 mM HEPES, and pH 7.40/KOH. Pipette resistance was 1.5–3 MΩ. […] All measurements were performed within a timeframe of 8–10 min. Fractional block at −80 and +50 mV was determined by dividing current levels obtained with test compound containing solutions by current levels of control traces recorded in the absence of test compound. Statistics (unpaired Students t-tests (two tailed)) were performed using Kaleidagraph 4.0 software (Synergy Software, Reading, PA, United States).
(§2) Travoprost (MedChemExpress, Monmouth Junction, NJ, United States) was dissolved in DMSO at 10 mM. Test compounds were diluted in bath solution at the indicated concentrations before the start of measurements.

Kir6.2/SUR2A = target: T2, Kir6.2/SUR2A (Rattus norvegicus, UniProt P70673); test: Inside-out patch clamp on HEK293T excised membrane patches, WT Kir6.2/SUR2A; assay type: cell-based; details: for IC50: inside-out patch, HEK293T; for Hill coefficient (outward): outward current
T2 construct: expressed in transfected cells; host or cells: HEK293T
T2 sequence (P70673 whole entry): as the sequence (P70673 whole entry C166S) above, with S166C counted along it
T2 sequence (Q63563 whole entry partner): as the sequence (Q63563 whole entry partner) above
Description: as §1, §2

Kir6.2/SUR2A S1020P = target: T3, Kir6.2/SUR2A S1020P (Rattus norvegicus, UniProt P70673); test: Inside-out patch clamp, Cantú mutant S1020P SUR2A with Kir6.2; assay type: cell-based; details: S1020P SUR2A/Kir6.2, outward current
T3 construct: expressed in transfected cells; host or cells: HEK293T
T3 sequence (P70673 whole entry, stated change not applied): as the sequence (P70673 whole entry C166S) above, with S166C counted along it
T3 sequence (Q63563 whole entry S1016P partner): as the sequence (Q63563 whole entry partner) above, with S1016P counted along it
Description: as §1, §2

Kir2.1 = test system: Kir2.1; design: method as in Yu et al. (2012); details: ref Yu et al. (2012); cited from earlier work
[1] = test system: Kir6.2/SURx (pancreatic and heart) channels; design: method as in Yu et al., 2012; details: ref Yu et al., 2012; cited from earlier work
Kir1.1 = test system: Kir1.1; design: method as in Yu et al. (2012); details: ref Yu et al. (2012); cited from earlier work
Kir4.1 = test system: Kir4.1; design: method as in Yu et al. (2012); details: ref Yu et al. (2012); cited from earlier work
vascular Kir6.1/SUR2B = test system: vascular Kir6.1/SUR2B; design: method as in Yu et al., 2011; details: ref Yu et al., 2011; cited from earlier work
[2] = design: method as in Cox et al., 2000; details: used to treat type II diabetes mellitus; ref Cox et al., 2000; cited from earlier work
[3] = outward current component (+50 mV), mean ± SEM, read-out: IC50 outward

SMILES	IC50 (Kir6.2 C166S/SUR2A) [µM]	IC50 (Kir6.2/SUR2A; [3]) [µM]	Hill coefficient (outward) (Kir6.2/SUR2A; Hill equation fit)	IC50 (Kir6.2/SUR2A S1020P) [µM]	IC50 (Kir6.2/SUR2A; inward current component (-80 mV), read-out: IC50 inward) [µM]	Hill coefficient (inward) (Kir6.2/SUR2A; inward current, Hill equation fit)	sensitivity of channel to drug (Kir2.1)	IC50 [1] [µM]	sensitivity of channel to drug (Kir1.1)	sensitivity of channel to drug (Kir4.1)	IC50 (vascular Kir6.1/SUR2B) [µM]	plasma concentrations [2] [nM]
CC(NCCc1ccc(O)cc1)C(O)c1ccc(O)cc1 (centres unmarked) [Ritodrine]	10.4 ± 0.87	7.09 ± 0.45	0.86	6.77 ± 0.49	–	–	–	–	–	–	–	–
CC(C)NCC(O)COc1ccc(CCOCC2CC2)cc1 (centres unmarked) [Betaxolol]	41.2 ± 2.89	22.1 ± 2.47	0.89	29.5 ± 3.78	–	–	–	–	–	–	–	–
CC(C)OC(=O)CCC/C=C\C[C@@H]1[C@@H](/C=C/[C@@H](O)COc2cccc(C(F)(F)F)c2)[C@H](O)C[C@@H]1O [Travoprost]	14.8 ± 2.16	2.46 ± 0.52	0.71	11 ± 1.28	2.3 ± 1.26	0.65	–	–	–	–	–	–
CN(CCOc1ccc(CC2SC(=O)NC2=O)cc1)c1ccccn1 (centres unmarked) [RSG, 5-[[4-[2-[methyl(pyridin-2-yl)amino]ethoxy]phenyl]methyl]-1,3-thiazolidine-2,4-dione]	34.9 ± 2.34	26 ± 1.49	–	25.4 ± 4.24	–	–	insensitive	45	insensitive	insensitive	10	~3000
